Assay results taken from patent US7256279B2, “Protein having ribonucleotide reductase activity and DNA thereof” (Takeda Pharmaceutical Company Limited, priority 1999, dated 2007).

Assays:
Assay type in all cases: cell-based
MCF7 cells [1] = test: DNA repair activity through ribonucleotide reductase activity ([3H]-CDP converted to [3H]-dCTP in damaged DNA) after oligonucleotide introduction; conditions: 14 Gy γ-ray irradiation 4 hours after lipofectin introduction, cells collected after 0, 24 and 48 hours (FIG. 5)
Protocol: DNA repair activity through ribonucleotide reductase activity was measured by converting [^3H]-CDP to [^3H]-dCTP through ribonucleotide reductase in cells, in which the DNA had been damaged, and measuring the radioactivity of [^3H]-dCTP in the damaged DNA.
1×10^6 MCF7 cells were propagated on 10 cm petri dishes, cellular DNA was damaged (14 Gy γ-ray irradiation) 24 hours later, and after 0, 6, 24 and 48 hours the cells were harvested. After washing the cells with Solution A (150 mM sucrose, 80 mM KCl, 35 mM Hepes (pH 7.4), 5 mM potassium phosphate (pH 7.4), 5 mM MgCl2, 0.5 mM CaCl2), these cells were treated for 1 minute at 4° C. with Solution A containing 0.25 mg/ml lysolecithin. […] 75 μl of 0.2N NaOH was added to the DNA obtained, which was then incubated for 30 minutes at 37° C. and mixed with 5 ml of AQUASOL-2 (Packard), and radioactivity was measured with an Aloka LSC-5100 liquid scintillation counter. […]
2×10^6 MCF7 cells were propagated on 10 cm petri dishes, and after 24 hours a TP53R2H antisense oligonucleotide (AS3) a sense oligonucleotide (SE3) and a p53 antisense oligonucleotide (p53AS) were introduced according to attached protocol using a lipofectin reagent (GIBCO BRL). […] DNA repair activity was then measured in the same way as in Example 4 above.

MCF7 cells [2] = test: Short-term cell survival (cell numbers counted every day for 6 days) after oligonucleotide introduction and DNA damage; conditions: in both the short- and long-term, after DNA damage (Table 1 and FIG. 6)
Protocol: (§1) Short-term and long-term cell survival rates were also measured when TP53R2H expression was suppressed with an antisense oligonucleotide and DNA was damaged.
(§2) 2×10^6 MCF7 cells) were propagated on 10 cm Petri dishes, and after 24 hours a p53R2 antisense oligonucleotide (AS3), a sense oligonucleotide (SE3) and a p53 antisense oligonucleotide (p53AS) were introduced using a lipofectin reagent. 4 hours later the cellular DNA was damaged (3 or 14 Gy γ-ray irradiation, adiamycin 0.2 μg/ml, UV 10 J/m^2).
(§3) In order to study short-term cell survival, the cells were stripped immediately after DNA damage and re-propagated on 6-hole plates to a density of 3×10^5, and cell numbers were counted every day for 6 days. To study long-term cell survival, the cells were re-propagated after DNA damage on 10 cm plates to a density of 1×10^4 or 1×10^3, and the number of colonies 1 mm or more in diameter was counted after three weeks and expressed as a percentage.

MCF7 cells [3] = test: Long-term cell survival (colony count after three weeks) after oligonucleotide introduction and DNA damage; conditions: colonies counted after three weeks
Protocol: as §1, §2, §3

Substance | DNA repair activity (MCF7 cells [1]) | sensitivity to DNA damage / cell death (MCF7 cells [2]) | long-term cell survival (number of colonies 1 mm or more in diameter, expressed as a percentage) (MCF7 cells [3]; Adriamycin (0.2 μg/ml)) [%] | long-term cell survival (number of colonies 1 mm or more in diameter, expressed as a percentage) (MCF7 cells [3]; UV (10 J/m2)) [%] | long-term cell survival (number of colonies 1 mm or more in diameter, expressed as a percentage) (MCF7 cells [3]; γ-radiation (3Gy)) [%]
AsCsAsTsTsTsAsCsCsTsCsAsTsCsCsT (ACATTTACCTCATCCT; all phosphorothioate, sugars by position and methylation of C not given here) [AS3] | DNA repair activity declined | sensitivity to DNA damage increases and cell death is more likely | 16 | 22 | 59
AsGsGsAsTsGsAsGsGsTsAsAsAsTsGsT (AGGATGAGGTAAATGT; all phosphorothioate, sugars by position not given here) [SE3] |  |  | 100 | 100 | 100
CsCsCsTsGsCsTsCsCsCsCsCsCsTsGsGsCsTsCsC (CCCTGCTCCCCCCTGGCTCC; all phosphorothioate, sugars by position and methylation of C not given here) [p53AS] | DNA repair activity also declined |  | 10 | 11 | 15
